From patent publication US20080096933A1, “4-Pyridinylethylcarboxamide Derivatives Useful as Fungicides” (priority 2004, published 2008)

Assays:
Pyrenophora teres = experiment: In vivo test on Pyrenophora teres (barley net blotch); settings: barley plants (Express variety), preventive spray, dose of 330 ppm, grading 12 days after contamination, in comparison with control plants
Protocol: In Vivo Test on Pyrenophora teres (Barley Net Blotch)
The active ingredient tested is prepared by potter homogenisation in a concentrated suspension type formulation at 100 g/l. This suspension is then diluted with water to obtain the desired active material concentration.
Barley plants (Express variety) in starter cups, sown on a 50/50 peat soil-pozzolana substrate and grown at 12° C., are treated at the 1-leaf stage (10 cm tall) by spraying with the aqueous suspension described above. Plants, used as controls, are treated with an aqueous solution not containing the active material.
After 24 hours, the plants are contaminated by spraying them with an aqueous suspension of Pyrenophora teres spores (12,000 spores per ml). The spores are collected from a 12-day-old culture The contaminated barley plants are incubated for 24 hours at about 20° C. and at 100% relative humidity, and then for 12 days at 80% relative humidity.
Grading is carried out 12 days after the contamination, in comparison with the control plants. Under these conditions, good (at least 50%) or total protection is observed at a dose of 330 ppm with the following compounds: A-1.

Alternaria brassicae = experiment: Effectiveness on Alternaria brassicae at 330 ppm; format: in vivo
Botrytis cinerea = experiment: Effectiveness on Botrytis cinerea at 330 ppm; format: in vivo
Peronospora parasitica = experiment: Efficacy against Peronospora parasitica at 330 ppm; format: in vivo

With Cn1cc(C(=O)NCCc2c(F)c(F)nc(F)c2F)c(C(F)F)n1 [Compound A-1, 3-(difluoromethyl)-1-methyl-N-[2-(2,3,5,6-tetrafluoro-4-pyridinyl)ethyl]-1H-pyrazole-4-carboxamide] the “protection (good (at least 50%) or total)” value (Pyrenophora teres) was “at least 50%”.

O=C(Cc1cccs1)NCc1ncc(C(F)(F)F)cc1Cl [compound 101, N-{[3-chloro-5-(trifluoromethyl)-2-pyridinyl]methyl}-5-thienylacetamide] was tested, and the “effectiveness on Alternaria brassicae” value (Alternaria brassicae) was “poor efficacy”, the “effectiveness on Botrytis cinerea” value (Botrytis cinerea) was “no efficacy” and the “efficacy against Peronospora parasitica” value (Peronospora parasitica) was “no efficacy”.

With CCNC(=O)C(Cc1ncc(C(F)(F)F)cc1Cl)NC(=O)c1ccccc1 (stereo not shown) [compound 304, N-{1-ethylcarbamoyl-2-[3-chloro-5-(trifluoromethyl)-2-pyridinyl]ethyl}-benzamide] the “effectiveness on Botrytis cinerea” value (Botrytis cinerea) was “zero effectiveness”.

With CCNC(=O)C(Cc1ncc(C(F)(F)F)cc1Cl)NC(=O)c1ccc(Cl)cc1 (stereo not shown) [compound 306, N-{1-ethylcarbamoyl-2-[3-chloro-5-(trifluoromethyl)-2-pyridinyl]ethyl}-4-chlorobenzamide] the “effectiveness on Botrytis cinerea” value (Botrytis cinerea) was “zero effectiveness”.

For CCNC(=O)C(Cc1ncc(C(F)(F)F)cc1Cl)NC(=O)c1cccc([N+](=O)[O-])c1 (stereo not shown) [compound 307, N-{1-ethylcarbamoyl-2-[3-chloro-5-(trifluoromethyl)-2-pyridinyl]ethyl}-3-nitrobenzamide], the “effectiveness on Alternaria brassicae” value (Alternaria brassicae) was “poor effectiveness” and the “effectiveness on Botrytis cinerea” value (Botrytis cinerea) was “zero effectiveness”.

CCNC(=O)C(Cc1ncc(C(F)(F)F)cc1Cl)NC(=O)c1ccccc1Br (stereo not shown) [compound 310, N-{1-ethylcarbamoyl-2-[3-chloro-5-(trifluoromethyl)-2-pyridinyl]ethyl}-2-bromobenzamide] was tested, and the “effectiveness on Botrytis cinerea” value (Botrytis cinerea) was “zero effectiveness”.

With CNC(=O)C(Cc1ncc(C(F)(F)F)cc1Cl)NC(=O)c1ccccc1 (stereo not shown) [compound 314, N-{1-methylcarbamoyl-2-[3-chloro-5-(trifluoromethyl)-2-pyridinyl]ethyl}-benzamide] the “effectiveness on Botrytis cinerea” value (Botrytis cinerea) was “zero effectiveness”.

With CNC(=O)C(Cc1ncc(C(F)(F)F)cc1Cl)NC(=O)c1ccc(OC)cc1 (stereo not shown) [compound 315, N-{1-methylcarbamoyl-2-[3-chloro-5-(trifluoromethyl)-2-pyridinyl]ethyl}-4-methoxybenzamide] the “effectiveness on Botrytis cinerea” value (Botrytis cinerea) was “zero effectiveness”.

CNC(=O)C(Cc1ncc(C(F)(F)F)cc1Cl)NC(=O)c1ccc(-c2ccccc2)cc1 (stereo not shown) [compound 316, N-{1-methylcarbamoyl-2-[3-chloro-5-(trifluoromethyl)-2-pyridinyl]ethyl}-4-phenylbenzamide] was tested, and the “effectiveness on Alternaria brassicae” value (Alternaria brassicae) was “poor effectiveness” and the “effectiveness on Botrytis cinerea” value (Botrytis cinerea) was “zero effectiveness”.
